Data published in the supplement of paper PMC10307832.

Tests used:
Test in all cases: relative viability (nuclei count vs DMSO), 5 days (fraction); higher = more cells survive
Gemcitabine + Linsitinib = compound: Nc1ccn([C@@H]2O[C@H](CO)[C@@H](O)C2(F)F)c(=O)n1 [Gemcitabine] + C[C@]1(O)C[C@@H](c2nc(-c3ccc4ccc(-c5ccccc5)nc4c3)c3c(N)nccn32)C1 [Linsitinib] (partner 1 µM)
Summary of the method: (§1)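 Lung cancer cell lines in 1536-well plates were dosed by pin tool the day after seeding, either with one drug alone or with a fixed anchor-drug dose plus five library-drug doses (not always all listed) in √10 steps. After 5 days, cells were fixed and their nuclei stained in one step (final 0.05% Triton X-100, 1% formaldehyde, 1 ug/ml Hoechst), then counted on 4× images. Relative viability is the nuclei count in treated wells divided by that in vehicle wells. Values are medians of duplicate plates.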

Gemcitabine + Navitoclax = compound: Nc1ccn([C@@H]2O[C@H](CO)[C@@H](O)C2(F)F)c(=O)n1 [Gemcitabine] + CC1(C)CCC(c2ccc(Cl)cc2)=C(CN2CCN(c3ccc(C(=O)NS(=O)(=O)c4ccc(N[C@H](CCN5CCOCC5)CSc5ccccc5)c(S(=O)(=O)C(F)(F)F)c4)cc3)CC2)C1 [Navitoclax] (partner 0.5 µM)
Summary of the method: as §1

Gemcitabine + Vorinostat = compound: Nc1ccn([C@@H]2O[C@H](CO)[C@@H](O)C2(F)F)c(=O)n1 [Gemcitabine] + O=C(CCCCCCC(=O)Nc1ccccc1)NO [Vorinostat] (partner 1 µM)
Summary of the method: as §1

Gemcitabine + Alpelisib = compound: Nc1ccn([C@@H]2O[C@H](CO)[C@@H](O)C2(F)F)c(=O)n1 [Gemcitabine] + Cc1nc(NC(=O)N2CCC[C@H]2C(N)=O)sc1-c1ccnc(C(C)(C)C(F)(F)F)c1 [Alpelisib] (partner 2 µM)
Summary of the method: as §1

Row | Cell Line | relative viability (Gemcitabine + Linsitinib; first compound 0.001 µM) | relative viability (Gemcitabine + Linsitinib; first compound 0.003162 µM) | relative viability (Gemcitabine + Linsitinib; first compound 0.01 µM) | relative viability (Gemcitabine + Linsitinib; first compound 0.03162 µM) | relative viability (Gemcitabine + Linsitinib; first compound 0.1 µM) | relative viability (Gemcitabine + Navitoclax; first compound 0.001 µM) | relative viability (Gemcitabine + Navitoclax; first compound 0.003162 µM) | relative viability (Gemcitabine + Navitoclax; first compound 0.01 µM) | relative viability (Gemcitabine + Navitoclax; first compound 0.03162 µM) | relative viability (Gemcitabine + Navitoclax; first compound 0.1 µM) | relative viability (Gemcitabine + Vorinostat; first compound 0.001 µM) | relative viability (Gemcitabine + Vorinostat; first compound 0.003162 µM) | relative viability (Gemcitabine + Vorinostat; first compound 0.01 µM) | relative viability (Gemcitabine + Vorinostat; first compound 0.03162 µM) | relative viability (Gemcitabine + Vorinostat; first compound 0.1 µM) | relative viability (Gemcitabine + Alpelisib; first compound 0.001 µM) | relative viability (Gemcitabine + Alpelisib; first compound 0.003162 µM) | relative viability (Gemcitabine + Alpelisib; first compound 0.01 µM) | relative viability (Gemcitabine + Alpelisib; first compound 0.03162 µM) | relative viability (Gemcitabine + Alpelisib; first compound 0.1 µM)
1 | NCI-H596 | 1.11 | 1.06 | 0.727 | 0.384 | 0.357 | 1.06 | 0.949 | 0.506 | 0.23 | 0.171 | 0.657 | 0.497 | 0.272 | 0.251 | 0.2 | 0.489 | 0.454 | 0.345 | 0.329 | 0.194
2 | NCI-H1793 | 1 | 0.857 | 0.539 | 0.16 | 0.135 | 0.488 | 0.474 | 0.169 | 0.216 | 0.151 | 0.985 | 0.62 | 0.152 | 0.148 | 0.106 | 0.706 | 0.594 | 0.354 | 0.156 | 0.147
3 | NCI-H1395 | 1.02 | 0.814 | 0.565 | 0.407 | 0.334 | 1.05 | 0.859 | 0.525 | 0.61 | 0.414 | 0.593 | 0.517 | 0.384 | 0.331 | 0.345 | 1.19 | 0.815 | 0.459 | 0.369 | 0.406
4 | HCC-827 | 0.96 | 0.79 | 0.546 | 0.327 | 0.252 | 0.967 | 0.815 | 0.557 | 0.357 | 0.224 | 0.883 | 0.806 | 0.426 | 0.19 | 0.179 | 0.895 | 0.48 | 0.56 | 0.391 | 0.167
5 | NCI-H2228 | 0.569 | 0.666 | 0.186 | 0.217 | 0.112 | 1.13 | 0.407 | 0.203 | 0.0863 | 0.0652 | 0.429 | 0.374 | 0.226 | 0.0768 | 0.217 | 0.74 | 0.534 | 0.144 | 0.123 | 0.134
6 | EMC-BAC-2 | 0.797 | 0.822 | 0.751 | 0.191 | 0.154 | 1.21 | 1.17 | 1.11 | 0.147 | 0.136 | 0.343 | 0.402 | 0.234 | 0.148 | 0.198 | 0.726 | 0.768 | 0.627 | 0.12 | 0.0893
7 | NCI-H23 | 0.447 | 0.226 | 0.123 | 0.11 | 0.118 | 0.866 | 0.245 | 0.125 | 0.139 | 0.124 | 0.504 | 0.122 | 0.11 | 0.106 | 0.109 | 0.57 | 0.242 | 0.108 | 0.129 | 0.115
8 | RERF-LC-KJ | 0.856 | 0.939 | 0.821 | 0.739 | 0.296 | 1.05 | 1.26 | 0.872 | 0.224 | 0.227 | 0.661 | 0.682 | 0.709 | 0.452 | 0.246 | 0.853 | 0.849 | 0.856 | 0.496 | 0.228
9 | LC-2-ad | 0.895 | 0.852 | 0.553 | 0.143 | 0.132 | 0.431 | 0.4 | 0.236 | 0.118 | 0.0927 | 0.7 | 0.804 | 0.665 | 0.522 | 0.199 | 0.901 | 0.833 | 0.5 | 0.0947 | 0.0966
10 | HCC-15 | 0.981 | 0.893 | 0.848 | 0.217 | 0.0888 | 0.718 | 0.702 | 0.69 | 0.441 | 0.0936 | 0.908 | 0.815 | 0.739 | 0.247 | 0.109 | 1.01 | 0.893 | 0.766 | 0.145 | 0.0627
11 | NCI-H2405 | 0.965 | 0.651 | 0.393 | 0.237 | 0.182 | 0.992 | 0.551 | 0.0966 | 0.084 | 0.0831 | 1.03 | 0.784 | 0.543 | 0.243 | 0.197 | 0.753 | 0.588 | 0.287 | 0.196 | 0.179
12 | LXF-289 | 0.957 | 0.953 | 0.751 | 0.147 | 0.107 | 0.934 | 0.925 | 0.655 | 0.084 | 0.0735 | 0.754 | 0.731 | 0.292 | 0.107 | 0.0902 | 1.04 | 1 | 0.737 | 0.123 | 0.114
13 | CAL-12T | 0.777 | 0.859 | 0.567 | 0.256 | 0.169 | 1.14 | 1.1 | 0.845 | 0.164 | 0.141 | 0.864 | 0.744 | 0.715 | 0.272 | 0.178 | 1.6 | 0.917 | 0.84 | 0.285 | 0.164
14 | COR-L23 | 1.19 | 0.954 | 0.467 | 0.0831 | 0.0803 | 0.951 | 0.96 | 0.381 | 0.0768 | 0.0895 | 0.486 | 0.347 | 0.092 | 0.0851 | 0.1 | 0.763 | 0.634 | 0.229 | 0.118 | 0.0742
15 | NCI-H1755 | 0.957 | 1.06 | 0.975 | 0.347 | 0.259 | 0.925 | 1.04 | 0.827 | 0.256 | 0.153 | 0.804 | 0.751 | 0.599 | 0.469 | 0.313 | 0.897 | 0.919 | 0.768 | 0.25 | 0.215
16 | NCI-H1437 | 1.05 | 0.875 | 0.406 | 0.213 | 0.105 | 1.06 | 1.05 | 0.555 | 0.206 | 0.111 | 0.749 | 0.792 | 0.645 | 0.398 | 0.232 | 1.15 | 0.873 | 0.373 | 0.185 | 0.0956
